In US8252930B2, “Azaindole derivatives with a combination of partial nicotinic acetyl-choline receptor agonism and dopamine reuptake inhibition” (Solvay Pharmaceuticals B.V., priority 2006, dated 2012):
Structures can show the parent of a compound that is named as a salt. Where two headings read alike, the source gives them in different places.

Assays:
[1] = target: T1, [^3H]-dopamine uptake in rat striatal synaptosomes (Rattus norvegicus, UniProt P23977); assay: In vitro [3H]-dopamine uptake in rat striatal synaptosomes; format: biochemical
T1 construct: a crude synaptosomal fraction (P2) was prepared by homogenization and centrifugation; from tissue; host or cells: rat striatum, crude synaptosomal fraction (P2)
T1 sequence (P23977 whole entry): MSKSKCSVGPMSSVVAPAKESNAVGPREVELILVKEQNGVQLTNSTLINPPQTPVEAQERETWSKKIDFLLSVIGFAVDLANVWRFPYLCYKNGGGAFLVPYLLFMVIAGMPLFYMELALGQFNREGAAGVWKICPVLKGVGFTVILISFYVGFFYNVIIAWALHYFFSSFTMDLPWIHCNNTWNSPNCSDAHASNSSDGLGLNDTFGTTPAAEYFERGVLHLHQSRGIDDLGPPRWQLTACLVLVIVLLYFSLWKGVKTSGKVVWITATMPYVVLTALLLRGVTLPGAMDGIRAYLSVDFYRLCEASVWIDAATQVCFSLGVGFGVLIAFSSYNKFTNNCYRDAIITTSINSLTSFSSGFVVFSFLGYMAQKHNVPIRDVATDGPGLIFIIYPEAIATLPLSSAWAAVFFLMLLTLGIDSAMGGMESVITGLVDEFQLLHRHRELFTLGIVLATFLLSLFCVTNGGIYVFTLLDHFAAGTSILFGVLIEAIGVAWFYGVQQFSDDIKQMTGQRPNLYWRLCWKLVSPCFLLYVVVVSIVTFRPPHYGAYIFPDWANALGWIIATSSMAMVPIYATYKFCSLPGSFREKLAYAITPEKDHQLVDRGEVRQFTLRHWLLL
Protocol: Subsequently, [^3H]-dopamine (2×10^−7 M final concentration) was added and incubation was continued for 10 min. [^3H]-dopamine uptake was stopped by filtration and the synaptosomes were washed four times with phosphate buffered saline. The amount of [^3H]-dopamine in the synaptosomes was determined by Betaplate liquid scintillation counting. […] Inhibition of DA uptake was performed in duplicate.

c1cnc2[nH]c(C3CCCNC3)cc2c1 (centres unmarked)
melting point: 144 to 145 °C

CN1CCC[C@H]1Cc1cc2cccnc2[nH]1
melting point: 130 to 131 °C

Clc1ccnc2[nH]c(C3CCCNC3)cc12 (centres unmarked) (as salt: HCl)
melting point: > 250 °C (dec.)

C1=C(c2cc3cccnc3[nH]2)CNCC1 (as salt: HCl) [Compound 25, 2-(1,2,5,6-tetrahydro-pyridin-3-yl)-1H-pyrrolo[2,3-b]pyridine]
melting point: > 275 °C (dec.)

c1cnc2[nH]cc(C[C@@H]3CCCN3)c2c1 (stereo in doubt) [Compound 97, (S)-3-Pyrrolidin-2-ylmethyl-1H-pyrrolo[2,3-b]pyridine]
IC50 ([1]; read-out: Functional activity re-uptake [^3H]-Dopamine pIC50 (converted)): > 10 µM

CN1CCC[C@H]1Cc1c[nH]c2ncccc12 (stereo in doubt) [Compound 99, (S)-3-(1-Methyl-pyrrolidin-2-ylmethyl)-1H-pyrrolo[2,3-b]pyridine]
IC50 [1]: > 10 µM

c1cnc2[nH]cc(C3CN4CCC3CC4)c2c1 (centres unmarked) [Compound 16, 3-(1H-Pyrrolo[2,3-b]pyridin-3-yl)-1-aza-bicyclo[2.2.2]octane]
melting point: 185 °C

c1cnc2[nH]c(C3CN4CCC3CC4)cc2c1 (centres unmarked) [Compound 21, 3-(1H-Pyrrolo[2,3-b]pyridin-2-yl)-1-aza-bicyclo[2.2.2]octane]
melting point: 190 °C
